Values joined by “and” are separate entries in the source; they are usually repeats but may differ in a detail not shown here. Equal entries are not always repeated.
Assays:
Human EP4 [1] = target: T1, Human EP4 (Homo sapiens, UniProt P35408); assay: EP4 cAMP antagonist assay (HTRF), human EP4; type: cell-based; conditions: HEK293 cells stably expressing human EP4; PGE2 at EC80; geometric mean ± SEM; read-out: cAMP Antagonism (hEP4) Human EP4 IC50
Protocol: (§1) Human EP4 (GenBank Accession # AY429109, Clone ID PER0400000, UMR cDNA Resource Center, Rolla, MO) was stably expressed in HEK293 cells. Rat EP4 cDNA (GenBank Accession# NM_03276) was cloned into pcDNA 3.1 vector and stably transfected into HEK293 cells. The cell lines were maintained in DMEM (invitrogen) supplemented with 10% fetal bovine serum (FBS), 1 mmol/L sodium pyruvate, 10 mmol/L HEPES, 500 μg/mL geneticin and 2 mmol/L L‐glutamine. Confluent cultures were grown at 37°C in an atmosphere containing 5% CO2. […] Immediately prior to the assay, cells were thawed with DMEM and suspended in cAMP assay buffer (HBSS with 0.1% BSA, 20 mmol/L HEPES and 200 μmol/L IBMX).
(§2) To measure the cAMP levels, cAMP‐d2 conjugate and anti cAMP‐cryptate conjugate in lysis buffer were incubated with the treated cells at room temperature for 1 h. […] The raw data were converted to cAMP (nmol/L) using a cAMP standard curve generated for each experiment. Data were analyzed using a 4‐parameter nonlinear logistic equation. Results are expressed as the geometric mean ± standard deviation or geometric mean ± standard error as noted.

Rat EP4 = target: T2, Rat EP4 (Rattus norvegicus, UniProt P43114); assay: EP4 cAMP antagonist assay (HTRF), rat EP4; type: cell-based; conditions: read-out: cAMP Antagonism Rat EP4 IC50
T2 construct: expressed in transfected cells
Protocol: Human EP4 (GenBank Accession # AY429109, Clone ID PER0400000, UMR cDNA Resource Center, Rolla, MO) was stably expressed in HEK293 cells. Rat EP4 cDNA (GenBank Accession# NM_03276) was cloned into pcDNA 3.1 vector and stably transfected into HEK293 cells. The cell lines were maintained in DMEM (invitrogen) supplemented with 10% fetal bovine serum (FBS), 1 mmol/L sodium pyruvate, 10 mmol/L HEPES, 500 μg/mL geneticin and 2 mmol/L L‐glutamine. Confluent cultures were grown at 37°C in an atmosphere containing 5% CO2. Cells were harvested using 0.25% Trypsin‐ EDTA, suspended in freeze media at a density of 10^7cel1s/mL, and aliquots were stored in liquid nitrogen. Immediately prior to the assay, cells were thawed with DMEM and suspended in cAMP assay buffer (HBSS with 0.1% BSA, 20 mmol/L HEPES and 200 μmol/L IBMX).
CJ‐023,423 served as the positive control. To measure the cAMP levels, cAMP‐d2 conjugate and anti cAMP‐cryptate conjugate in lysis buffer were incubated with the treated cells at room temperature for 1 h. The HTRF signal was detected using an EnVision plate reader (Perkin‐Elmer, Inc., Waltham, MA, USA.) to calculate the ratio of fluorescence at 665 to 620 nm. The raw data were converted to cAMP (nmol/L) using a cAMP standard curve generated for each experiment. Data were analyzed using a 4‐parameter nonlinear logistic equation. Results are expressed as the geometric mean ± standard deviation or geometric mean ± standard error as noted.

human EP1 receptor = target: T3, human EP1 receptor (Homo sapiens, UniProt P34995); assay: [3H]-PGE2 receptor binding assay, EP1 membranes
T3 construct: membrane preparation
T3 sequence (P34995 1-402): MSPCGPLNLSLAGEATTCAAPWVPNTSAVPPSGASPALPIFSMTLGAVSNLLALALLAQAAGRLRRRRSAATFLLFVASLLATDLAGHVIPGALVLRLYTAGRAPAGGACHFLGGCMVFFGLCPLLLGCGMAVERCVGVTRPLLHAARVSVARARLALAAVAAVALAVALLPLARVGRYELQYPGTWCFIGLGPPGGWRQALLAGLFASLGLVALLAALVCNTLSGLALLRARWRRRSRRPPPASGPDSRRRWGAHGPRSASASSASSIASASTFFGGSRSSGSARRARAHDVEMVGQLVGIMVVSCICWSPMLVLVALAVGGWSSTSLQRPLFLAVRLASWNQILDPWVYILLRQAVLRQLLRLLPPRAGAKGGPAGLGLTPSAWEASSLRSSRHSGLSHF
Protocol: (§3) Receptor binding assays were done using membrane preparations of HEK 293 cells transfected with various prostanoid receptors using previously published procedure (Nakao et al. 2007). EP1 and EP4 membranes were prepared from recombinant HEK293 cells stably expressing human EPl receptor (GenBank Accession # AY275470, Clone ID PER0100000, UMR cDNA Resource Center, Rolla, MO) or human EP4 receptor. EP2 and EP3 membranes were prepared from HEK293 cells transiently transfected with human EP2 receptor (GenBank Accession # AY275471, Clone ID PER0200000, UMR cDNA Resource Center, Rolla, MO) or human EP3 receptor (GenBank Accession # AY429108, Clone ID PER3VI0000, UMR cDNA Resource Center, Rolla, MO) plasmids. Frozen cell pellets were homogenized in homogenization buffer (10 mmol/L Tris‐HCl, pH7.4, 250 mmol/L sucrose, 1 mmol/L EDTA, 0.3 mmol/L indomethacin and protease inhibitor cocktail with EDTA (Roche Molecular Biochemicals, catalog # 1691498)) using a Teflon/glass homogenizer. After a low speed centrifugation (200g for 15 min at 4°C) the supernatant was subjected to high speed centrifugation (30,000g for 60 min at 4°C). Membrane protein preparation was aliquoted and quick frozen on dry ice prior to storage at −80°C. […] Compounds were tested in a 96‐well format using a three‐fold dilution series to generate 10‐point curves. […] The binding reaction was performed in 200 μL MES buffer (10 mmol/L MES, pH 6.0, 10 mmol/L MgCl2, and l mmol/L EDTA) using polystyrene 96‐well plates. […] The membranes were harvested by filtration (TomTek harvester), washed four times with cold buffer (10 mmol/L MES, pH 6.0, 10 mmol/L MgCl2), dried in a 60°C oven, and the radioactivity was quantified as counts per min (CPM) using a TopCount detector. […] Data were analyzed using a 4‐parameter nonlinear logistic equation. K i Conversion from IC50 Values (K i = […] where [L] is the ligand concentration). Results are expressed as the geometric mean ± standard deviation or geometric mean ± standard error as noted.

dogs with osteoarthritis = system: dogs with osteoarthritis; set-up: method as in Rausch‐Derra et al. 2016; conditions: prospective placebo controlled study, ref Rausch‐Derra et al. 2016; cited from earlier work
Human EP4 [2] = target: T1, Human EP4; assay: [3H]-PGE2 receptor binding assay, EP4 membranes; set-up: expressed in transfected cells; membrane preparation; conditions: HEK293 membranes, geometric mean ± SEM, read-out: hEP1-4 receptor binding EP4 Ki
Protocol: as §3

human EP3 receptor = target: T4, human EP3 receptor (Homo sapiens, UniProt P43115); assay: [3H]-PGE2 receptor binding assay, EP3 membranes; conditions: HEK293 membranes, geometric mean ± SEM, read-out: hEP1-4 receptor binding EP3 Ki
T4 sequence (P43115 1-359 limits assumed): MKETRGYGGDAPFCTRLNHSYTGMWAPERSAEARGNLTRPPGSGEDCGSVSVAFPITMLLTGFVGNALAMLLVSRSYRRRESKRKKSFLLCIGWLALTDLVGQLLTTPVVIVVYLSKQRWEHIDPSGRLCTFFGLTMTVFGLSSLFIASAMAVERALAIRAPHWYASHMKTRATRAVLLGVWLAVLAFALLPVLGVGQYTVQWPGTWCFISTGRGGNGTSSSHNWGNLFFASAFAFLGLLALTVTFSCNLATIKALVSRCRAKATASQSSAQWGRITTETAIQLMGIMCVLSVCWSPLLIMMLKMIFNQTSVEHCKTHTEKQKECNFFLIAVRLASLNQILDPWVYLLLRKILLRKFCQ
Protocol: as §3

human EP2 receptor = target: T5, human EP2 receptor (Homo sapiens, UniProt P43116); assay: [3H]-PGE2 receptor binding assay, EP2 membranes; conditions: HEK293 membranes; [3H]-PGE2; geometric mean ± SEM; read-out: hEP1-4 receptor binding EP2 Ki
T5 construct: host or cells: HEK293, transient; membrane preparation
Protocol: as §3

Human EP4 [3] = target: T1, Human EP4; assay: PGE2 stimulated cAMP production by HEK293/EP4 cell line; type: cell-based
Protocol: as §1, §2

[4] = system: male Lewis rats, adjuvant induced arthritis; assay: AIA model of inflammation (paw swelling); type: in vivo; conditions: rat AIA; 10 mg/kg oral once daily 4 days; P < 0.05 by Dunnett's test
Protocol: (§4) For the monoiodoacetate (MIA) and adjuvant induced arthritis (AIA) studies, male Lewis rats (Envigo, Indianapolis, IN) of approximately 8 weeks of age at the time of disease induction were used. For collagen induced arthritis studies (CIA) female Lewis rats (Charles River) weighing 150–170 g were used. Rats were housed in groups of 2 or 3 per cage and maintained in a constant temperature, and on a 12 h light/12 h dark cycle. Animals had free access to food and water at all times except during data collection.
On Day 0, paw widths of both right and left paws were measured between the lateral and dorsal surfaces using calipers, and a mean paw thickness for each rat was calculated by averaging these measurements. Rats were then inoculated intradermally with 0.25 mg of adjuvant (M. Tuberculosis H37 RA from Difco) in 100 μL of mineral oil at the base of the tail to induce adjuvant disease. Eleven days post inoculation paw widths of both right and left paws were measured again, and the percent change from the Day 0 reading was calculated. […] On the fifth day after dosing started (day 15 post adjuvant injection) the rats were euthanized without further dosing and paw width measured again. The percent increase in mean paw thickness from day 11 to day 15 was then calculated as a measure of paw swelling which is indicative of the amount of inflammation in the paws measured. […]

[5] = system: female Lewis rats, collagen induced arthritis; assay: Type-II CIA model of inflammation and autoimmunity; type: in vivo; conditions: rat CIA
Protocol: as §4
On day 1 of the study ankle widths are measured across the joint (left side to right side) at the thickest point with calipers and rats immunized intradermally near the base of the tail with 0.4 mL of 1 mg/mL type II collagen (Elastin Products) emulsified with incomplete Freund's adjuvant (Sigma Aldrich). A second booster injection booster of 0.4 mL of the collagen emulsion was given on day 8 of the study. Ankle widths were measured on day 8 before the collagen injection and every 2–3 days thereafter until study end. On day 11 rats were randomized into five groups of eight animals based on inflammation (redness and/or swelling) in their hind paws and body weight. Rats were then dosed with vehicle (10% Acacia plus 0.05% antifoam) and compound 3 at doses of 3, 10, and 30 mg/kg. Prednisolone was included at a dose of 10 mg/kg as a positive control. Dosing was by oral gavage once daily for seventeen days at a dose volume of 5 mL/kg. On day 28 rats were euthanized and hind paws and knee joints collected for histology. Ankles and knees were fixed in neutral buffered formalin, decalcified, embedded in paraffin, and sectioned according to standard histological methodology and the joints were then scored by a pathologist using published scoring criteria (Bendele 2001; Levine et al. 2014).

[6] = 10 mg/kg oral once daily for seventeen days

T1 sequence (P35408 whole entry): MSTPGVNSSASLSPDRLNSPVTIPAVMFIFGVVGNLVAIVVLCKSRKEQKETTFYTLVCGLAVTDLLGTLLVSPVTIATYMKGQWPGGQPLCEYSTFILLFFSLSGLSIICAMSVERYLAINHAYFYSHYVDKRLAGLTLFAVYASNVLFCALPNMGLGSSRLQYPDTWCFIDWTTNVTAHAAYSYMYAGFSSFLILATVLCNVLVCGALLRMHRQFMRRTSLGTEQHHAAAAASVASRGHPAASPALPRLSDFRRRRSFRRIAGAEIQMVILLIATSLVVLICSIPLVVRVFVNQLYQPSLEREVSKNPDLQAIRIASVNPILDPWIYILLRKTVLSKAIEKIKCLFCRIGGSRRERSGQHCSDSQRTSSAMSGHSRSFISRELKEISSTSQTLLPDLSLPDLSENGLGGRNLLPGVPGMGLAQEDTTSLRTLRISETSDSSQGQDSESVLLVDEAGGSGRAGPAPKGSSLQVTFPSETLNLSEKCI
T5 sequence (P43116 whole entry): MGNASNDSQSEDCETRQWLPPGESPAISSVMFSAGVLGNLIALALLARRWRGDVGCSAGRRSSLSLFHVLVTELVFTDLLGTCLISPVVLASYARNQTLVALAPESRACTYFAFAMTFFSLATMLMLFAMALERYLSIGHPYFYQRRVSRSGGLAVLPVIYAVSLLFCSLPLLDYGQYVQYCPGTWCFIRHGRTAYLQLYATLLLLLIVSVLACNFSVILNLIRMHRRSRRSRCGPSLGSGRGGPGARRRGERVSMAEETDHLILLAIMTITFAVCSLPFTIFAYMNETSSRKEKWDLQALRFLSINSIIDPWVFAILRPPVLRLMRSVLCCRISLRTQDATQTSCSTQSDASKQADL
T2 sequence (P43114 whole entry): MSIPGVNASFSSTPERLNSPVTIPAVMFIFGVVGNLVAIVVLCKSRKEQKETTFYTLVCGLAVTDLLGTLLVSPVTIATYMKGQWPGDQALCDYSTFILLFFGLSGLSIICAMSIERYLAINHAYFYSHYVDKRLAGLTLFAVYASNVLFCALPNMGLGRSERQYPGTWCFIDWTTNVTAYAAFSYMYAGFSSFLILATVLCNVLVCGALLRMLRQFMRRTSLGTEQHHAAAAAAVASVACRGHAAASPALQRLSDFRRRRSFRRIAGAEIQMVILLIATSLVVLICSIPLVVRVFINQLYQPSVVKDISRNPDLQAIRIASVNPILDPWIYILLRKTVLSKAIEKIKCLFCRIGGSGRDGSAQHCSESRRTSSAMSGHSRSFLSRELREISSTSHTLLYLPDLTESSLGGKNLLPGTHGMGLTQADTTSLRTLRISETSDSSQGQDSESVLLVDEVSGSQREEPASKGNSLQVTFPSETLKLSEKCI

In the case of CCc1nc2c(C)nc(C)cc2n1-c1ccc(CCNC(=O)NS(=O)(=O)c2ccc(C)cc2)cc1 [CJ‐023,423, N‐[({2‐[4‐(2‐ethyl‐4, 6‐dimethyl‐1H‐imidazo [4, 5–c]pyridin‐1‐yl)phenyl]ethyl}amino)carbonyl]‐4‐methylbenzenesulfonamide, reference compound], the IC50 (Human EP4 [1]) is reported as 12 nM and 11.7 nM, the IC50 (Rat EP4) is reported as 13.1 ± 1 nM and the Ki (human EP1 receptor; HEK293 membranes, [3H]-PGE2, geometric mean ± SEM, read-out: hEP1-4 receptor binding EP1 Ki) is reported as greater than 22900 nM. The “efficacy for signs and symptoms of OA” value (dogs with osteoarthritis) was “efficacious”, the Ki (Human EP4 [2]) was 449 ± 123 nM and the Ki (human EP3 receptor) was greater than 19500 nM. For the same molecule, the Ki (human EP2 receptor) was greater than 21600 nM.

With CCCCC[C@H](O)/C=C/[C@H]1[C@H](O)CC(=O)[C@@H]1C/C=C\CCCC(=O)O [PGE2, Prostaglandin (PG) E2] the “EC80 cAMP production” value (Human EP4 [3]; HEK 293 cells stably transfected with human EP4 cDNA, 20 min) was 0.34 nM and the “EC80 cAMP production (Fig. 2A)” value (Human EP4 [3]; HEK‐293 cells stably transfected with human EP4 cDNA, 20 min at room temperature) was 0.34 nM.

Work on CCCCC[C@H](O)/C=C/[C@H]1[C@H](O)CC(=O)[C@@H]1C/C=C\CCCC(=O)O [^3[H] PGE2] yielded a Kd (human EP1 receptor; read-out: ^3[H] PGE2 Binding/kd EP1, HEK 293 membranes, homologous competition (Fig. 3D)) of 5.62 nM.

In the case of O=C(O)Cc1ccccc1Nc1c(Cl)cccc1Cl [diclofenac, reference compound], the “increases in paw inflammation (swelling) compared to vehicle” value [4] is reported as “significantly inhibited”.

With C[C@]12C=CC(=O)C=C1CC[C@@H]1[C@@H]2[C@@H](O)C[C@@]2(C)[C@H]1CC[C@]2(O)C(=O)CO [prednisolone, Prednisolone] the “reduction in summed scores (ankle histology)” value [5, 6] was 93%, the “reductions in all ankle scores (histology)” value [5, 6] was 87–99% and the ankle thickness ([5]; 10 mg/kg oral once daily, data not shown) was “significant reduction”. For the same molecule, the “knee joint histopathology (representative photomicrograph)” value ([5]; Fig. 10 bottom panel, prednisolone 10 mg/kg, compound 3 dose not given) was “very minimal inflammation (S) and cartilage damage not visible at this magnification” and the “ankle joint histopathology (representative photomicrograph)” value ([5]; Fig. 10 top panel, prednisolone 10 mg/kg, compound 3 dose not given) was “minimal inflammation (S) and minimal cartilage damage”.

From paper PMC5464344, “Analgesic and anti‐inflammatory properties of novel, selective, and potent EP4 receptor antagonists” (Pharmacology Research & Perspectives, 2017)
